Counter-ions that a name gives are not always drawn.
Target: T1, Human Polθ polymerase domain (aa1820-2590) (Homo sapiens, UniProt O75417)
T1 construct: Human Polθ polymerase domain (aa1820-2590) was expressed in E. Coli; made in house; host or cells: E. coli
T1 sequence (O75417 1820-2590): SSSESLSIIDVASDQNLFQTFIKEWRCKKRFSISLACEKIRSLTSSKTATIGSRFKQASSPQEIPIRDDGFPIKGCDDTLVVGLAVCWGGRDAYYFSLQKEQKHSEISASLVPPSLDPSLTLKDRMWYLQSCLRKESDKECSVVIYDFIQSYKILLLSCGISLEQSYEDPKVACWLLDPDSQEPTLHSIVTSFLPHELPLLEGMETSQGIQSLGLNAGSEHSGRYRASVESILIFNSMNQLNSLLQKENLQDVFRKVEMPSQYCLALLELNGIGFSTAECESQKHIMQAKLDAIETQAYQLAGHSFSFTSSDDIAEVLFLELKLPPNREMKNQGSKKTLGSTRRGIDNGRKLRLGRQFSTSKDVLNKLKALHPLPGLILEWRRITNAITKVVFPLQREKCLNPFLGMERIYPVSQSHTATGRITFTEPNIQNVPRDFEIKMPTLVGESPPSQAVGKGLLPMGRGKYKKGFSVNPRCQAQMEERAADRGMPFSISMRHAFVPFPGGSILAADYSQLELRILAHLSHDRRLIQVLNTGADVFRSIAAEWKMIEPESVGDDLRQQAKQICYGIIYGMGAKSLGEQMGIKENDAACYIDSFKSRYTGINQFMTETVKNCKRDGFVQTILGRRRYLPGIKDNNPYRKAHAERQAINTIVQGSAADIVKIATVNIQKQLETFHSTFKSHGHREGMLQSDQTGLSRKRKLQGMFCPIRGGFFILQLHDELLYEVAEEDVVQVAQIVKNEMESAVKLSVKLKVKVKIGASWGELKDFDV
Assay: Polθ Polymerase Domain WT KI Assay (PicoGreen)
Type: biochemical
Conditions: 100 nM DNA substrate, 0.156 nM Polθ, initial rates vs inhibitor concentration
Procedure, shortened: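 E. coli-expressed human Polθ polymerase domain (aa1820-2590) on annealed DNA II Short/Long primer-template (1.2:1), in 25 mM Tris pH 7.5, NaCl, 5% glycerol, 0.01% Triton X-100, 0.1 mg/ml BSA, 1 mM DTT, 1% DMSO. EDTA-quenched timepoints to 180 min, PicoGreen fluorescence. Initial rates vs inhibitor concentration fitted four-parameter for KI.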

| Structure (SMILES) | Ki |
| --- | --- |
| Cc1cc(C(F)(F)F)cc(N2C(=O)C[C@@H]3CN(c4ccc5ncn(C)c5c4)c4c(F)cccc4N(C)C(=O)[C@H]32)n1 [Example 144, (3aR,11aS)-6-Fluoro-10-methyl-5-(1-methyl-1H-benzo[d]imidazol-6-yl)-1-(6-methyl-4-(trifluoromethyl)pyridin-2-yl)-1,3a,4,5,10,11a-hexahydro-2H-benzo[b]pyrrolo[2,3-f][1,4]diazocine-2,11(3H)-dione] | 28.8 nM |
| Cc1cc(C(F)(F)F)cc(N2C(=O)C[C@@H]3CN(c4ccccn4)c4c(Cl)cccc4N(C)C(=O)[C@H]32)n1 [Example 145, (3aR,11aS)-6-Chloro-10-methyl-1-(6-methyl-4-(trifluoromethyl)pyridin-2-yl)-5-(pyridin-2-yl)-1,3a,4,5,10,11a-hexahydro-2H-benzo[b]pyrrolo[2,3-f][1,4]diazocine-2,11(3H)-dione] | 30.5 nM |
| Cc1cc(C(F)(F)F)cc(N2C(=O)C[C@@H]3CN(CCCN(C)C)c4c(C)cccc4N(C)C(=O)[C@H]32)n1 [Example 128, (3aR,11aS)-5-(3-(Dimethylamino)propyl)-6,10-dimethyl-1-(6-methyl-4-(trifluoromethyl)pyridin-2-yl)-1,3a,4,5,10,11a-hexahydro-2H-benzo[b]pyrrolo[2,3-f][1,4]diazocine-2,11(3H)-dione] | 1.39 nM |
| Cc1cc(C(F)(F)F)cc(N2C(=O)C[C@@H]3CN(C[C@@H]4CCNC4)c4c(C)cccc4N(C)C(=O)[C@H]32)n1 [Example 103, (3aR,11aS)-6,10-Dimethyl-1-(6-methyl-4-(trifluoromethyl)pyridin-2-yl)-5-(((R)-pyrrolidin-3-yl)methyl)-1,3a,4,5,10,11a-hexahydro-2H-benzo[b]pyrrolo[2,3-f][1,4]diazocine-2,11(3H)-dione hydrochloride] | 2.43 nM |
| Cc1cc(C(F)(F)F)cc(N2C(=O)C[C@@H]3CN(CCN4CC[C@H](C(=O)N(C)C)C4)c4c(C)cccc4N(C)C(=O)[C@H]32)n1 [Example 72, (S)-1-(2-((3aR,11aS)-6,10-Dimethyl-1-(6-methyl-4-(trifluoromethyl)pyridin-2-yl)-2,11-dioxo-1,2,3,3a,4,10,11,11a-octahydro-5H-benzo[b]pyrrolo[2,3-f][1,4]diazocin-5-yl)ethyl)-N,N-dimethylpyrrolidine-3-carboxamide] | 0.969 nM |
| Cc1cc(C(F)(F)F)cc(N2C(=O)C[C@@H]3CN(CCN4CC5(COC5)C4)c4c(Cl)cccc4N(C)C(=O)[C@H]32)n1 [Example 29, (3aR,11aS)-5-(2-(2-Oxa-6-azaspiro[3.3]heptan-6-yl)ethyl)-6-chloro-10-methyl-1-(6-methyl-4-(trifluoromethyl)pyridin-2-yl)-1,3a,4,5,10,11a-hexahydro-2H-benzo[b]pyrrolo[2,3-f][1,4]diazocine-2,11(3H)-dione] | 1.42 nM |
| Cc1cc(C(F)(F)F)cc(N2C(=O)C[C@@H]3CN(CCN4CCOC[C@@H]4C)c4c(Cl)cccc4N(C)C(=O)[C@H]32)n1 [Example 25, (3aR,11aS)-6-Chloro-10-methyl-1-(6-methyl-4-(trifluoromethyl)pyridin-2-yl)-5-(2-((S)-3-methylmorpholino)ethyl)-1,3a,4,5,10,11a-hexahydro-2H-benzo[b]pyrrolo[2,3-f][1,4]diazocine-2,11(3H)-dione] | 0.711 nM |
| Cc1cc(C(F)(F)F)cc(N2C(=O)C[C@@H]3CN(CCN4CCC(C#N)CC4)c4c(Cl)cccc4N(C)C(=O)[C@H]32)n1 [Example 38, 1-(2-((3aR,11aS)-6-Chloro-10-methyl-1-(6-methyl-4-(trifluoromethyl)pyridin-2-yl)-2,11-dioxo-1,2,3,3a,4,10,11,11a-octahydro-5H-benzo[b]pyrrolo[2,3-f][1,4]diazocin-5-yl)ethyl)piperidine-4-carbonitrile] | 1.2 nM |
| Cc1cc(C(F)(F)F)cc(N2C(=O)C[C@@H]3CN(CCN4CCN(C)CC4)c4c(C)cccc4NC(=O)[C@H]32)n1 [Example 149, (3aR,11aS)-6-Methyl-1-(6-methyl-4-(trifluoromethyl)pyridin-2-yl)-5-(2-(4-methylpiperazin-1-yl)ethyl)-1,3a,4,5,10,11a-hexahydro-2H-benzo[b]pyrrolo[2,3-f][1,4]diazocine-2,11(3H)-dione] | 3.25 nM |
| Cc1cc(C(F)(F)F)cc(N2C(=O)C[C@@H]3CN(CCN4CC[C@H](O)C4)c4c(Cl)cccc4N(C)C(=O)[C@H]32)n1 [Example 32, (3aR,11aS)-6-Chloro-5-(2-((S)-3-hydroxypyrrolidin-1-yl)ethyl)-10-methyl-1-(6-methyl-4-(trifluoromethyl)pyridin-2-yl)-1,3a,4,5,10,11a-hexahydro-2H-benzo[b]pyrrolo[2,3-f][1,4]diazocine-2,11(3H)-dione] | 6.78 nM |
| Cc1cc(C(F)(F)F)cc(N2C(=O)C[C@@H]3CN(CC4CCCNC4)c4c(Cl)cccc4N(C)C(=O)[C@H]32)n1 (stereo partly drawn) [Example 110, (3aR,11aS)-6-Chloro-10-methyl-1-(6-methyl-4-(trifluoromethyl)pyridin-2-yl)-5-(piperidin-3-ylmethyl)-1,3a,4,5,10,11a-hexahydro-2H-benzo[b]pyrrolo[2,3-f][1,4]diazocine-2,11(3H)-dione] | 2.08 nM |
| Cc1cc(C(F)(F)F)cc(N2C(=O)C[C@@H]3CN(CCN4CCN(C)[C@@H](C)C4)c4c(Cl)cccc4N(C)C(=O)[C@H]32)n1 [Example 30, (3aR,11aS)-6-Chloro-5-(2-((S)-3,4-dimethylpiperazin-1-yl)ethyl)-10-methyl-1-(6-methyl-4-(trifluoromethyl)pyridin-2-yl)-1,3a,4,5,10,11a-hexahydro-2H-benzo[b]pyrrolo[2,3-f][1,4]diazocine-2,11(3H)-dione] | 0.381 nM |
| Cc1cc(C(F)(F)F)cc(N2C(=O)C[C@@H]3CN(CCOCCN(C)C)c4c(C)cccc4N(C)C(=O)[C@H]32)n1 [Example 90, (3aR,11aS)-5-(2-(2-(Dimethylamino)ethoxy)ethyl)-6,10-dimethyl-1-(6-methyl-4-(trifluoromethyl)pyridin-2-yl)-1,3a,4,5,10,11a-hexahydro-2H-benzo[b]pyrrolo[2,3-f][1,4]diazocine-2,11(3H)-dione] | 0.991 nM |
| Cc1cc(C(F)(F)F)cc(N2C(=O)C[C@@H]3CN(CCN4CCN(S(C)(=O)=O)CC4)c4c(Cl)cccc4N(C)C(=O)[C@H]32)n1 [Example 36, (3aR,11aS)-6-Chloro-10-methyl-1-(6-methyl-4-(trifluoromethyl)pyridin-2-yl)-5-(2-(4-(methylsulfonyl)piperazin-1-yl)ethyl)-1,3a,4,5,10,11a-hexahydro-2H-benzo[b]pyrrolo[2,3-f][1,4]diazocine-2,11(3H)-dione] | 1.25 nM |

Other lines, results leading:

| Ki | Structure (SMILES) |
| --- | --- |
| 6.04 nM | Cc1cc(C(F)(F)F)cc(N2C(=O)C[C@@H]3CN(C[C@@H]4CCCN4C)c4c(Cl)cccc4N(C)C(=O)[C@H]32)n1 (racemic) [Example 118b, (3aR,11aS)-6-Chloro-10-methyl-1-(6-methyl-4-(trifluoromethyl)pyridin-2-yl)-5-(((S/R)-1-methylpyrrolidin-2-yl)methyl)-1,3a,4,5,10,11a-hexahydro-2H-benzo[b]pyrrolo[2,3-f][1,4]diazocine-2,11(3H)-dione] |
| 1.92 nM | Cc1cc(C(F)(F)F)cc(N2C(=O)C[C@@H]3CN(CC(C)O)c4c(Cl)cccc4N(C)C(=O)[C@H]32)n1 (single isomer, unassigned) [Example 131b] |
| 1.47 nM | Cc1cc(C(F)(F)F)cc(N2C(=O)C[C@@H]3CN(C[C@@H](O)CN4CCOCC4)c4c(Cl)cccc4N(C)C(=O)[C@H]32)n1 (racemic) [Example 133a, (3aR,11aS)-6-chloro-5-((S/R)-2-hydroxy-3-morpholinopropyl)-10-methyl-1-(6-methyl-4-(trifluoromethyl)pyridin-2-yl)-1,3a,4,5,10,11a-hexahydro-2H-benzo[b]pyrrolo[2,3-f][1,4]diazocine-2,11(3H)-dione] |
| 14.7 nM | Cc1cc(C(F)(F)F)cc(N2C(=O)C[C@@H]3CN(C4CC(OCc5ccccc5)C4)c4c(F)cccc4N(C)C(=O)[C@H]32)n1 (single isomer, unassigned) [Example 92b] |
| 1.28 nM | Cc1cc(C(F)(F)F)cc(N2C(=O)C[C@@H]3CN(C[C@H]4COCCN4C)c4c(Cl)cccc4N(C)C(=O)[C@H]32)n1 (racemic) [Example 119a, (3aR,11aS)-6-Chloro-10-methyl-1-(6-methyl-4-(trifluoromethyl)pyridin-2-yl)-5-(((S/R)-4-methylmorpholin-3-yl)methyl)-1,3a,4,5,10,11a-hexahydro-2H-benzo[b]pyrrolo[2,3-f][1,4]diazocine-2,11(3H)-dione] |

From patent publication US20260124214A1, “HETEROCYCLIC COMPOUNDS FOR USE IN THE TREATMENT OF CANCER” (ARTIOS PHARMA LIMITED, priority 2021, published 2026)
